The nature of data set [1]: (§1) Toxicity in brine shrimp assessed as mortality of larvae at 100 uM. Format: organism-based. The conditions noted are these: artemia, in vivo; read-out: Activity.
Another data set relates to Solanum lycopersicum. Nature of the data set: Herbicidal activity against tomato seedlings assessed as inhibition of rootlet elongation at 100 uM. In kind it is functional.
In the next data set the test system is Artemia. The data set is described as §1. Format: organism-based. The conditions noted are these: in vivo, 100 µM.

The text below walks through data of ChEMBL document CHEMBL1147258, “Cytochalasins Z4, Z5, and Z6, three new 24-Oxa[14]cytochalasans produced by Phoma exigua var. heteromorpha” (J Nat Prod, 2003).

Each structure is given as a SMILES string. Activity calls are given as the source filed them. The rule behind the calls is not given here.

On to `C=C1[C@@H](C)[C@H]2[C@H](Cc3ccc(O)cc3)NC(=O)[C@]23OC(=O)/C=C/[C@H](O)CCC[C@@H](C)C/C=C/[C@H]3[C@@H]1O` [CYTOCHALASIN Z5], for which the mortality at 100 µM in data set [1] amounted to 21%. For the same compound, in the data set on Solanum lycopersicum, the result was inactive.
For `C[C@H]1C/C=C/[C@H]2[C@@H]3O[C@]3(C)[C@@H](C)[C@H]3[C@H](Cc4ccccc4)NC(=O)[C@]32OC(=O)/C=C/CC(O)CC1` (stereo partly specified) [CYTOCHALASIN Z6], the Activity result in the data set on Artemia was “Non-toxic”. For the same compound, in the data set on Solanum lycopersicum, the inhibition (commonly the percentage by which the read-out fell short of the control) at 100 µM is 30%.
Regarding `C=C1[C@@H](C)[C@H]2[C@H](Cc3ccccc3O)NC(=O)[C@]23OC(=O)/C=C/[C@H](O)CCC[C@@H](C)C/C=C/[C@H]3[C@@H]1O` [CYTOCHALASIN Z4], in the data set on Artemia, the Activity result is “Non-toxic”. The result with Solanum lycopersicum was inactive.
